This is an account of results in US20120258961A1, “4-AMINO-1,3-THIAZINE OR OXAZINE DERIVATIVE” (SHIONOGI & CO., LTD., priority 2009, published 2012).

The subject of data set [1] is Neuroblastoma SH-SY5Y cells (SH/APPwt) with human wild-type β-APP excessively expressed. Put plainly: Measurement of β-amyloid (Aβ) production inhibitory effect in cell. As to conditions: 24 hours, Amyloid β 1-40 HTRF in culture supernatant, read-out: Test example 2 IC50 (amount needed to inhibit Aβ production by 50%). It is filed as cell-based. On the procedure:
Neuroblastoma SH-SY5Y cells (SH/APPwt) with human wild-type β-APP excessively expressed therein were prepared at 8×10^5 cells/mL, and 150 μl portions thereof were inoculated into each well of a 96-well culture plate (Falcon). The cells were cultured for 2 hours at 37° C. in a 5% gaseous carbon dioxide incubator. Then, a solution which had been preliminarily prepared by adding and suspending the test compound (DMSO (dimethyl sulfoxide) solution) so as to be 2 μl/50 μl medium was added to the cell sap. Namely, the final DMSO concentration was 1%, and the amount of the cell culture was 200 μl. After the incubation was performed for 24 hours from the addition of the test compound, 100 μl of the culture supernatant was collected from each fraction. The amount of the Aβ in each fraction was measured.
The Aβ amount was measured as follows. 10 μl of a homogeneous time resolved fluorescence (HTRF) measurement reagent (Amyloid β 1-40 peptide; IBA Molecular Holding, S.A.) and 10 μl of the culture supernatant were put into a 384-well half area microplate (black microplate, Costar) and mixed with each other, and then left standing overnight at 4° C. while the light was shielded. Then, the fluorescence intensity (excitation wavelength: 337 nm, measurement wavelength: 620 nm and 665 nm) was measured with a Wallac 1420 multilabel counter (Perkin Elmer life sciences). The Aβ amount was determined from the count rate at each measurement wavelength (10000×Count 665/Count 620), and the amount needed to inhibit Aβ production by 50% (IC50) was calculated from at least six different dosages.
(In general: TR-FRET usually uses a lanthanide donor and a delayed reading to cut background.)

Data set [2] in a line: Solubility test (Test Example 7(1)). As to conditions: aqueous buffer, kinetic from dmso stock; medium (JP-I, JP-II), 2% DMSO solution, after 4 hours; read-out: Solubility assessed by 3 stages from turbidity. It is filed as physicochemical. On the procedure: A 2-fold dilution series (12 points) of a 10 mM solution of a test compound in DMSO was added to a medium (JP-I, JP-II) (2%), and solubility was assessed by 3 stages (High; >40 μM, Medium; 3-40 μM, Low; <3 μM) from a turbidity after 4 hours (crystallization information).

Data set [3] is described as follows: Brain distribution studies. The format is in vivo. The following applies: rat, intravenous 0.5 mg/mL/kg, 30 minutes later, read-out: Brain Kp value (area ratio brain/plasma). The protocol:
Intravenous administration is carried out to a rat by 0.5 mg/mL/kg dosage of a text compound. […] Then, the brain was extracted and 20-25% of homogenate thereof was prepared with distilled water. On the other hand, the obtained blood is used as plasma after centrifuging. Then, to the brain sample was added the control plasma at 1:1. To the plasma samples was added the control brains at 1:1. Each sample was measured using LC/MS/MS. The obtained area ratio (a brain/plasma) was used for the brain Kp value.

Data set [4] is described as follows: BA test (oral absorption). It is filed as in vivo. The following applies: plasma; from AUCs of oral and intravenous administration groups, mouse or rats. The protocol:
Materials and Methods for studies on oral absorption
(1) Animal: Mouse or Rats
(2) Breeding conditions: mouse or rats were allowed to freely take solid feed and sterilized tap water. (3) Dose and grouping: orally or intravenously administered at a predetermined dose; grouping was as follows (Dose depends on the compound) Oral administration: 1 to 30 mg/kg (n=2 to 3) Intravenous administration: 0.5 to 10 mg/kg (n=2 to 3) (4) Preparation of dosing solution: for oral administration, in a solution or a suspension state; for intravenous administration, in a solubilized state (5) Administration method: in oral administration, forcedly administer into ventriculus with oral probe; in intravenous administration, administer from caudal vein with a needle-equipped syringe (6) Evaluation items: blood was collected over time, and the plasma concentration of drug was measured by LC/MS/MS (7) Statistical analysis: regarding the transition of the plasma concentration, the area under the plasma concentration-time curve (AUC) was calculated by non-linear least squares program WinNonlin (Registered trade name), and the bioavailability (BA) was calculated from the AUCs of the oral administration group and intravenous administration group

Data set [5] addresses T1, CYP3A4 enzyme expressed in Escherichia coli (Homo sapiens, UniProt P08684).
T1 construct: host or cells: Escherichia coli
Put plainly: CYP3A4 fluorescent MBI test. The format is in vitro ADME. The following applies: substrate 7-BFC. The protocol:
The CYP3A4 fluorescent MBI test is a test of investigating enhancement of CYP3A4 inhibition of a compound by a metabolism reaction, and the test was performed using, as CYP3A4 enzyme expressed in Escherichia coli and employing, as an index, a reaction in which 7-benzyloxytrifluoromethylchmarin (7-BFC) is debenzylated by the CYP3A4 enzyme to produce a metabolite, 7-hydroxytrifluoromethylchmarin (HFC) emitting fluorescent light.
The reaction conditions were as follows: substrate, 5.6 μmol/L 7-BFC; pre-reaction time, 0 or […]; reaction time, 15 minutes; reaction temperature, 25° C. […]
An enzyme in a K-Pi buffer (pH 7.4) and a test drug solution as a pre-reaction solution were added to a 96-well plate at the composition of the pre-reaction, a part of it was transferred to another 96-well plate so that it was 1/10 diluted by a substrate in a K-Pi buffer, NADPH as a co-factor was added to initiate a reaction as an index (without preincubation) and, after a predetermined time of a reaction, acetonitrile/0.5 mol/L Tris(trishydroxyaminomethane)=4/1 was added to stop the reaction. […] For the plate on which each index reaction had been performed, a fluorescent value of 7-HFC which is a metabolite was measured with a fluorescent plate reader. […]

The target of the next data set is T2, Recombinant human BACE1 (Homo sapiens, UniProt P56817).
T2 construct: purchased R&D Systems
The data set is described as follows: Assay of BACE1 inhibiting activity. As to conditions: Recombinant human BACE1 7.4 nmol/L, substrate peptide 18 nmol/L, pH 5.0, 30° C., 3 hours; read-out: Test example 1 IC50 (BACE1 inhibiting activity). It is filed as biochemical. The protocol: 48.5 μL of substrate peptide solution (Biotin-XSEVNLDAEFRHDSGC-Eu: X=ε-amino-n-capronic acid, Eu=Europium cryptate) was added to each well of 96-hole half-area plate (a black plate: Costar), and after addition of 0.5 μl of the test compound (dissolved in […]) and 1 μl of Recombinant human BACE1 (R&D Systems), the reaction mixture was incubated at 30° C. for 3 hours. The substrate peptide was synthesized by reacting Cryptate TBPCOOH mono SMP (CIS bio international) with Biotin-XSEVNLDAEFRHDSGC (Peptide Institute, Inc.). The final concentrations of the substrate peptide and Recombinant human BACE1 were adjusted to 18 nmol/L and 7.4 nmol/L, respectively, and the reaction was performed in sodium acetate buffer (50 mmol/L sodium acetate, pH 5.0, 0.008% Triton X-100). After the incubation for reaction, 50 μl of 8.0 μg/ml Streptavidin-XL665 (CIS bio international) dissolved in phosphate buffer (150 mmol/L K2HPO4—KH2PO4, pH 7.0, 0.008% Triton X-100, 0.8 mol/L KF) was added to each well and left stand at 30° C. for an hour. After then, fluorescence intensity was measured (excitation wavelength: 320 nm, measuring wavelength: 620 nm and 665 nm) using Wallac 1420 multilabel counter (Perkin Elmer life sciences). Enzymatic activity was determined from counting ratio of each wavelength (10,000×Count 665/Count 620) and 50% inhibitory concentration (IC50) against the enzymatic activity was calculated.

The nature of data set [6]: Metabolism stability test. As to conditions: human liver microsomes 0.5 mg protein/mL, 1 mmol/L NADPH, 37° C., 30 minutes. The format is in vitro ADME. On the procedure: Using a commercially available pooled human hepatic microsomes, a test compound was reacted for a constant time, a remaining rate was calculated by comparing a reacted sample and an unreacted sample, thereby, a degree of metabolism in liver was assessed.
A reaction was performed (oxidative reaction) at 37° C. for 0 minute or 30 minutes in the presence of 1 mmol/L NADPH in 0.2 mL of a buffer (50 mmol/L Tris-HCl pH 7.4, 150 mmol/L potassium chloride, 10 mmol/L magnesium chloride) containing 0.5 mg protein/mL of human liver microsomes. After the reaction, 50 μL of the reaction solution was added to 100 μL of a methanol/acetonitrile=1/1 (v/v), mixed and centrifuged at 3000 rpm for 15 minutes. The test compound in the supernatant was quantified by LC/MS/MS, and a remaining amount of the test compound after the reaction was calculated, letting a compound amount at 0 minute reaction time to be 100%.
Background: Microsomes from liver hold many membrane-bound enzymes, among them those of drug oxidation.

Data set [7] deals with CYP1A2, CYP2C9, CYP2C19, CYP2D6, CYP3A4. Put plainly: in vitro. As to conditions: human, microsomes.
Source text: Using commercially available pooled human hepatic microsome, and employing, as markers, O-deethylation of 7-ethoxyresorufin (CYP1A2), methyl-hydroxylation of tolbutamide (CYP2C9), 4′-hydroxylation of mephenyloin (CYP2C19), O-demethylation of dextromethorphan (CYP2D6) and hydroxylation of terfenadine (CYP3A4) as typical substrate metabolism reactions of human main five CYP enzyme forms (CYP1A2, 2C9, 2C19, 2D6, 3A4), an inhibitory degree of each metabolite production amount by a test compound was assessed. […]
Each five kinds of substrates, human hepatic microsome, and a test drug in 50 mmol/L Hepes buffer as a reaction solution was added to a 96-well plate at the composition as described above, NADPH, as a cofactor was added to initiate metabolism reactions as markers and, after the incubation at 37° C. for 15 minutes, a methanol/acetonitrile=1/1 (v/v) solution was added to stop the reaction. After the centrifugation at 3000 rpm for 15 minutes, resorufin (CYP1A2 metabolite) in the supernatant was quantified by a fluorescent multilabel counter and tributamide hydroxide (CYP2CP metabolite), mephenyloin 4′ hydroxide (CYP2C19 metabolite), dextromethorphan (CYP2D6 metabolite), and terfenadine alcohol (CYP3A4 metabolite) were quantified by LC/MS/MS. […]

T2 sequence (P56817 46-501): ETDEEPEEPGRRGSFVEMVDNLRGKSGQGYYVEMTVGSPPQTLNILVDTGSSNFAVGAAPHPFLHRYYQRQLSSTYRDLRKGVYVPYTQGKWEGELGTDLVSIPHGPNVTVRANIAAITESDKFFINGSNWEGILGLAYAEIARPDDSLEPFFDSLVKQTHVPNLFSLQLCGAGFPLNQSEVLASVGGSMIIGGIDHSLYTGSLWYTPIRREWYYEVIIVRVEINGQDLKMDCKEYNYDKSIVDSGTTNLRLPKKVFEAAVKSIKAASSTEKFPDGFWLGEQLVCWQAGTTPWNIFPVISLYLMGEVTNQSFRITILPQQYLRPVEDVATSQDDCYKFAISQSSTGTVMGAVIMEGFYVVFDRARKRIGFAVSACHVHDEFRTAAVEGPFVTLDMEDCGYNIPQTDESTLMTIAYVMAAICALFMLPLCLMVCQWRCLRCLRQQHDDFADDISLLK
T1 sequence (P08684 whole entry): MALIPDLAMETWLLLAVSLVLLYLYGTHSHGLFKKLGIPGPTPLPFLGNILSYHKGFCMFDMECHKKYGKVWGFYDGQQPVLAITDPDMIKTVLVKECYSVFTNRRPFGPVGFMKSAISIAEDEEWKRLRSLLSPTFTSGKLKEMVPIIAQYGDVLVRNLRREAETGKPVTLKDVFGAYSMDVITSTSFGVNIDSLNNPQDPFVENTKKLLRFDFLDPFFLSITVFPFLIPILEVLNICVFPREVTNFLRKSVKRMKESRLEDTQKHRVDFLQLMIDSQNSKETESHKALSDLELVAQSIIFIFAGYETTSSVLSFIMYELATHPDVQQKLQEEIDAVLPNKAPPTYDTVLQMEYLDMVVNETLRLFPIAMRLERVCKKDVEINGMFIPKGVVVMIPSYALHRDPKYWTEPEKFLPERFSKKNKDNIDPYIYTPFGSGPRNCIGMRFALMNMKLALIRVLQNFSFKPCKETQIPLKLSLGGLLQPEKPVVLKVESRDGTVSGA

As usually defined, the IC50 is the point on the concentration scale where inhibition reaches its midpoint. Turning to `CC1(c2cc(NC(=O)c3ccc(C#N)cn3)ccc2F)N=C(N)c2ccc(N)cc2O1` (stereo not shown) [Compound I-10], the IC50 in data set [1] was at most 1000 nM. On to `Cc1cnc(C(=O)Nc2ccc(F)c(C3(C)N=C(N)c4ccccc4S3)c2)cn1` (stereo not shown) [Compound I-7], for which the IC50 in data set [1] was at most 1000 nM. What is called solubility is the dissolved amount per volume that the medium holds. For the compound `CC1(c2cc(NC(=O)c3ccc(C#N)cn3)ccc2F)N=C(N)c2cc(N)ccc2O1` (stereo not shown) [Compound I-9], the IC50 in data set [1] was at most 1000 nM. Moreover, in data set [2], the solubility at 4 h was over 40 µM. Take `CC1(c2cc(NC(=O)c3ccc(C#N)cn3)ccc2F)N=C(N)c2cc(F)ccc2O1` (stereo not shown) [Compound I-11]: the half-maximal inhibitory concentration (IC50) in data set [1] is at most 1000 nM. In addition, the Kp at 0.5 h in data set [3] worked out at 5.8. Take `CC1(c2cc(NC(=O)c3ccc(C#N)cn3)ccc2F)N=C(N)CCS1` (stereo not shown) [Compound I-6]: in data set [1], the IC50 was at most 1000 nM.

As a reminder, the bioavailability is dose-corrected exposure relative to a reference, in per cent. The low end stands for poor availability, the high end for good availability. Consider `Cc1cnc(C(=O)Nc2ccc(F)c(C3(C)N=C(N)CCS3)c2)cn1` (stereo not shown) [Compound I-1], for which the IC50 in data set [1] was at most 1000 nM. This compound also displayed a bioavailability in data set [4] of 93.4%.

Take `CC1(c2cc(NC(=O)c3ccc(C#N)cn3)ccc2F)N=C(N)c2ccccc2O1` (stereo not shown) [Compound I-4]: in data set [1], the IC50 was at most 1000 nM. For the same compound, the “CYP3A4 fluorescent MBI: difference between IC50 values without and with preincubation” value in data set [5] is given as “(−) (when the difference is 3 μM or less, this was defined as (−))”. `CC1(c2cc(NC(=O)c3ccc(C#N)cn3)ccc2F)N=C(N)c2ccc(F)cc2O1` (stereo not shown) [Compound I-12]: the figures for the IC50 (at Recombinant human BACE1; in data set [1]) were 61 nM and 15 nM, respectively. For the compound `Cc1cnc(C(=O)Nc2ccc(F)c(C3(C)N=C(N)CCS3(=O)=O)c2)cn1` (stereo not shown) [Compound I-19], the IC50 in data set [1] was at most 1000 nM. The “Remaining amount of the test compound after the reaction (metabolism stability)” value in data set [6] is given as 97%. In addition, the IC50 at 15 min in data set [7] was over 17000 nM.

Regarding `CC1(c2cc(NC(=O)c3ccc(C#N)cn3)ccc2F)N=C(N)c2cc(Cl)ccc2O1` (stereo not shown) [Compound I-5], the half-maximal inhibitory concentration (IC50) in data set [1] is at most 1000 nM. As to `CC1(c2cc(NC(=O)c3ncc(Cl)cc3Cl)ccc2F)N=C(N)CCS1` (stereo not shown) [Compound I-2], the half-inhibitory concentration (IC50) on Recombinant human BACE1 is 10 nM; in data set [1], under 1 nM. As for `COc1cnc(C(=O)Nc2ccc(F)c(C3(C)N=C(N)c4ccccc4S3)c2)cn1` (stereo not shown) [Compound I-8], the values for the IC50 (at Recombinant human BACE1; in data set [1]) were 66 nM and 19 nM, respectively. Take `CC1(c2cc(NC(=O)c3ccc(C#N)cn3)ccc2F)N=C(N)c2ccccc2S1` (stereo not shown) [Compound I-3]: the 50% inhibitory concentration (IC50) in data set [1] is at most 1000 nM.
